Patent US20180353445A1, “METHODS AND COMPOSITIONS RELATING TO PROTEASOME INHIBITOR RESISTANCE” (Whitehead Institute for Biomedical Research, priority 2017, published 2018)

How the values were obtained:
HepG2 cells = experiment: Cell viability assay (resazurin), HepG2 cells with shRNA knockdown of proteasome subunits vs control; assay type: cell-based, human
Text: FIGS. 2A-2F: Reducing expression of 19S subunits increases the levels of active 20S proteasomes and protects cancer cells from proteasome (FIG. 2A) HepG2 cells were infected with 80 shRNAs targeting 20 different subunits of the proteasome and 10 control shRNAs. Infected cells were then exposed to […] bortezomib and cell number was examined 4 days later. The plot represents the average (+/−SEM) of four different hairpins targeting the indicated proteasome subunits and their relative cell number following bortezomib treatment. 19S subunits are depicted with orange bars, the control with a blue bar and 20S subunits with green bars. […] (FIG. 2C) The relative cell number of cells harboring a control shLacZ or each of 4 individual shRNAs targeting shPSMD2 was analyzed 4 days after addition of the indicated concentrations of bortezomib. (FIG. 2D) HepG2 cells stably expressing four different shRNAs targeting the PSMD2 subunit and a control shRNA (lacZ) were analyzed by western blot for the indicated proteins 24 hours with or without bortezomib treatment. […] Proteasome complex levels were detected by immunoblot analysis and 20S proteasome activity by measuring the hydrolysis of Suc-LLVY-AMC by substrate overlay assays. * p<0.05 **p<0.01. […]

[1] = test system: relapsed multiple myeloma; experiment: Analysis of phase 2/3 bortezomib clinical trials in relapsed multiple myeloma stratified by 19S subunit expression; assay type: in vivo, human
Experimental: (All patients were treated with bortezomib.) (FIG. 15B) Reduced expression of 19S subunit expression is correlated with poor tumor suppression response to bortezomib in patients with relapsed myeloma enrolled in phase 2 and phase 3 clinical trials of bortezomib. Plotted is the time to relapse for patients that relapsed that were either treated with bortezomib, stratified by reduced expression of at least one subunit of the 19S proteasome complex or the dexamethasone treated group as a control.
We analyzed gene expression data from 135 patients with relapsed multiple myeloma who participated in Phase II or III trials of bortezomib (˜2007; Mulligan, G., Mitsiades, et al. (2007) Gene expression profiling and correlation with outcome in clinical trials of the proteasome inhibitor hortezomib. Blood 109, 3177-3188) and determined the sigma score for each cancer. […]
Methods details: re-treatment gene expression data from relapsed multiple myeloma patients undergoing clinical trials with bortezomib were downloaded from GSE9782 (34). […] Sigma scores were calculated from all probes. […] P-value was calculated using Wilcoxon test.

cancer cell lines (GDSC) = experiment: Genomics of Drug Sensitivity in Cancer (GDSC) data analysis, IC50 of bortezomib and MG132 vs 19S expression / sigma score; assay type: cell-based, human; conditions: GDSC database
Text: In some aspects, whether a cancer cell is considered resistant or sensitive to a particular agent may be determined by comparing the IC50 of the agent for the cancer cell with the IC50 of the agent as measured for each cell line in a panel of diverse cancer cell lines. Cancer cells for which the agent has an IC50 in the 10th percentile of IC50 values determined for the agent on a diverse panel of cancer cell lines may be considered sensitive, while cancer cells for which the agent has an IC50 in the 90th percentile of IC50 values determined for the agent on a diverse panel of cancer cell lines may be considered resistant to the agent.
We asked if this might correlate with changes in 19S subunit expression. We analyzed the Genomics of Drug Sensitivity in Cancer (GDSC) database, a public resource of transcriptional data and drug responsiveness collected from a spectrum of human cancer cell lines with diverse tissue origins and diverse oncogenic lesions (Garnett et al., 2012). […]
Further details of methods used in GDSC dataset analysis: Gene expression and drug sensitivity data was downloaded from the World Wide Web at subdomain cancerrxgene.org. […] For each proteasomal subunit gene, a-score was calculated for each cell line. […] P-values were calculated by t-test, comparing the logEC50s between the 3 sigma and not 3 sigma.

FDX1 = biological target: T1, FDX1 (Homo sapiens, UniProt P10109); experiment: NMR titration of elesclomol against [U-15N]-FDX1 (2D 1H,15N TROSY-HSQC); assay type: binding
T1 construct: made in house
T1 sequence (P10109 62-184): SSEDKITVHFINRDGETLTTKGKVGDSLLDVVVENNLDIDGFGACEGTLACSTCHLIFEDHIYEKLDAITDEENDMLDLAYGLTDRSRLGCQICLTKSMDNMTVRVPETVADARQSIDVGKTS
Experimental: Most of these residues map to the α2, α3 helices and the β5 strand within the FDX1 structure (FIG. 53E).
NMR Spectroscopy—NMR spectra were collected at the National Magnetic Resonance Facility at Madison on a 750 MHz (^1H) Balker with a z-gradient cryogenic probe. The buffer used for NMR samples (HNT buffer) contained 20 mM HEPES at pH 7.6, 150 mM NaCl, and 2 mM TCEP. All sample temperatures were regulated at 25° C. NMRPipe software (Delaglio et al., 1995) was used to process the raw NMR data and NMRFAM-SPARKY (Lee et al., 2015) software was utilized to visualize and analyze the processed NMR data.
To study the interactions of FDX1 with elesclomol, 0.2 mM [U-^15N]-FDX1 in HNT buffer were placed in 5 mm Shigemi NMR tubes, and 2D ^1H,^15N TROSY-HSQC spectra were collected before and after titration of 5 equivalent molar ratio of elesclomol dissolved in HNT buffer.
Chemical shift perturbations (ΔδHN absolute value ppm) were calculated by
where Δ67 H and ΔδN are the chemical shift changes in the ^1H and ^15N dimensions, respectively.

| Compound | proliferation of control cells (HepG2 cells; 12 nM, control HepG2 cells) | increase of EC50 values in cell lines with shRNA-reduced PSMD2 vs parental line (HepG2 cells; HepG2, four shRNAs targeting PSMD2, 4 days) | time to progression of patients with reduced 19S subunit expression vs patients without ([1]; 34 patients, p-value=0.0086) | effectiveness in patients with reduced expression of 19S proteasome subunit(s) ([1]; vs dexamethasone control) | average IC50 value in 3-Sigma cell lines vs all other lines (cancer cell lines (GDSC)) | binding to FDX1 by NMR (FDX1; 0.2 mM [U-15N]-FDX1, 5 equivalent molar ratio of elesclomol) | chemical shift perturbation (Δδ) of the most affected FDX residues (FDX1; I58-F59, D61, K66, D68, A69, D72-D76, L84, T104-R106) [ppm] |
| --- | --- | --- | --- | --- | --- | --- | --- |
| CC(C)C[C@H](NC(=O)[C@H](Cc1ccccc1)NC(=O)c1cnccn1)B(O)O [bortezomib] | completely inhibited | three to six-fold | shortened time to progression | no significant effectiveness over the dexamethasone control | considerably higher |  |  |
| CN(NC(=O)CC(=O)NN(C)C(=S)c1ccccc1)C(=S)c1ccccc1 [elesclomol] |  |  |  |  |  | directly binds FDX1 | > 0.01 |
